Data taken from US11691992B2 (Anacor Pharmaceuticals, Inc., priority 2017, dated 2023).
Read-outs that look alike come from different tables or passages of the source.

Legend:
Type in all cases: cell-based
[1] = system: luciferase-expressing L. major parasites developing intracellularly inside RAW 264.7 macrophages; experiment: Leishmania major intracellular amastigote assay in RAW 264.7 macrophages (luciferase); settings: RAW264.7, 96 hours, read-out: IC50: I Org. intracellular amastigote Growth L. major, 4 d
Text: Example 107. Assay for Leishmania major Intracellular Amastigote Assay in RAW 264.7 Macrophages
The intracellular amastigote assay is a microtiter plate drug sensitivity assay that uses the activity of luciferase as a measure of proliferation of luciferase-expressing L. major parasites developing intracellularly inside RAW 264.7 macrophages in the presence of antileishmanial drugs or experimental compounds. (Buckner, F. S., and A. J. Wilson. Am J Prop Med Hyg, 2005, 72(5): 600-605.) As the activity of luciferase and its associated luminescence after addition of the substrate, luciferin, is relative to parasite growth, a test compound that inhibits the growth of the parasite will result in a lower luminescence. The luciferase-expressing L. major parasite used in this assay is genetically modified by adding the luciferase coding region to the pLEXSY-hyg2 vector (Jena Biosciences). The luciferase expression construct was created by digesting the luciferase coding region (1.66 kbp) of pGL3-Basic (Promega) by using two restriction enzymes, NcoI/EagI, followed by electrophoretic separation of the luciferase coding region on a 1% agarose gel. The luciferase coding region was then ligated into pLEXSY-hyg2 vector (Jena Biosciences) which had previously been digested with NcoI/NotI. The vector was linearized with SwaI and subsequently gel purified prior to transfection into L. major parasites. Transfections were carried out by electroporation at 480V, 13Ω, and 500 μF (0.4 mL of 1×10^8 parasites/mL, and 0.1 mL of 10 μg DNA). Selection for transfectants was then carried out using hygromycin B (100 μg/mL). RAW 264.7 macrophages were cultured in DMEM media (ATCC Cat #30-2002) supplemented with heat-inactivated 10% FBS (Invitrogen Cat #10438-034). To begin the assay, macrophages were harvested from culture by removing all spent media, adding in 10 mL fresh media, scraping cells, and counted using Trypan Blue. The cells were resuspended in DMEM/10% HIFBS media at 2.0×10^5 cells/mL, and then dispensed in a volume of 50 μL to yield a final concentration of 10,000 macrophages/well in 384 well tissue-culture treated sterile white plates (Nunc Cat #12-565-343) using a Tecan EVO Freedom robotics system. The plates were then incubated at 37° C. overnight in 5% CO2 atmosphere for 24 hours. After overnight incubation, the media was removed from each well using the Tecan EVO Freedom robot, and L. major promastigotes were added to each well and allowed to invade the RAW macrophages. Promastigotes were cultured in Schneider's medium (Invitrogen Cat #11720-067) supplemented with 20% heat inactivated FBS. Metacyclic stage promastigotes provide the best invasion for this assay, and cultures should be grown to increase the percentage of metacyclic promastigotes for best results. Promastigotes were harvested from culture, counted, suspended at 2×10^6 promastigotes/mL in DMEM/HIFBS media, and 100,000 promastigotes were dispensed per well in a volume of 50 μL. After overnight incubation, the media was removed from each well using the Tecan Freedom EVO robot, and each well was subsequently washed three times with 40 μF of fresh DMEM/HIFBS medium to remove all extracellular promastigotes. After the third wash, 69.2 μF of DMEM/HIFBS medium was added to each well using the Tecan EVO Freedom robot. Drug plates were prepared with the Tecan EVO Freedom using sterile 96 well plates containing twelve duplicate two-fold serial dilutions of each test compound suspended in DMSO. 7.8 μF of diluted test compound was added to the 69.2 μF of media present in each well providing a 10 fold final dilution of compound. The final concentration range tested was 0.5 to 10,000 ng/ml for all assays. The plates were next incubated at 37° C. and 5% CO2 for 96 hours. After 96 hours of incubation, 7.5 μF of a luciferin solution (Caliper Fife Science) diluted to 150 μg/mF was added to each well, and the plates were incubated for 30 minutes at 37° C., in the dark. […]

[2] = system: TdTomato-modified T. cruzi (CL strain) in Vero cells; experiment: In vitro IC50 measurement of T. cruzi amastigote killing using TdTomato-modified T. cruzi (CL strain); settings: Trypanosoma cruzi, 72 h, fluorescence, read-out: IC50: I Org. amastigote Growth T. cruzi CL TdTomato, 3 d
Protocol: Example 112. In Vitro IC50 Measurement of T. cruzi Amastigote Killing Using TdTomato-Modified T. cruzi (CL Strain)
The T. cruzi parasites used in this assay were genetically modified to express Td Tomato fluorescent protein. Vero cells (African green monkey kidney epithelial cells) were harvested from continuous cultures using trypsin and added to the inner 60 wells of 96-well Greiner Bio One plates (plate catalog #655090) at 200 ul/well of […]. Cells were allowed to adhere for 1 h before infection with T. cruzi. T. cruzi for infection were harvested from previously-infected Vero cells, washed, pelleted and resuspended at 5×10^6/mL. 50 uL of parasites were added to each well containing Vero cells. Compounds were prepared from 5 mM stock concentrations in DMSO to final concentrations in wells ranging from 5 uM to 5 nM. Wells were provided for negative controls, lacking compounds. Plates were placed into a 37° C. incubator for 20 min, then a “Day 0” reading was taken on a Synergy H4 plate reader to record initial fluorescence levels, at 544 (excitation) and 612 nm (emission). 96-well plates were placed in Tupperware containers with wet paper towels and incubated at 37° C. incubator for 72 h. After 72 h plates were reread (Day 3 reading) and data analyzed using Excel and/or Graphpad software. Day 0 fluorescence was subtracted from Day 3 to remove input parasite fluorescence. Growth curves are generated and 50% and 90% inhibitory concentrations are determined by nonlinear regression analysis.

[3] = system: IL3000 T. congolense (drug sensitive) strain; experiment: In vitro Alamar Blue 72 h drug sensitivity assay for T. congolense; settings: Trypanosoma congolense; for IC50: bloodstream form, 69 h + 3 h resazurin, 34° C., classes A-C, read-out: IC50: I Org. Growth T. congolense IL-3000, 3 d
Protocol: Example 106. In Vitro Alamar Blue 72 h Drug Sensitivity Assay for T. congolense
Compounds were tested in vitro for chemotherapeutic potency against the IL3000 T. congolense (drug sensitive) strain, using the Alamar Blue assay with several modifications. Test compounds were prepared as 10 mg/mL DMSO stocks for each assay run. Compounds were assayed in at least three separate, independent test runs and an 11-point dilution curve was used to determine the IC50 values. Bloodstream form trypanosomes were supported in HMI media containing 20% bovine serum and were incubated with test compounds for 69 h at 34° C. in a humidified atmosphere containing 5% CO2. Thereafter, 10 μL of Resazurin dye (12.5 mg in 100 mL of phosphate buffered saline, Sigma-Aldrich, Buchs, Switzerland) were added for an additional 3 h. Plates were then read using a fluorescent plate reader (Spectramax, Gemini XS, Bucher Biotec, Basel, Switzerland) using an excitation wavelength of 536 nm and an emission wavelength of 588 nm. Data points were averaged to generate sigmoidal dose-response curves and IC50 values were determined using Softmax Pro 5.2 software.

[4] = system: L. infantum MHOM/MA(BE)/67 amastigotes in primary peritoneal mouse macrophages; experiment: Leishmania infantum intracellular amastigote assay in mouse macrophages; settings: Macrophage, 120 h
Protocol: Example 111. Leishmania infantum Intracellular Amastigote Assay in Mouse Macrophages
L. infantum MHOM/MA(BE)/67 amastigotes were collected from the spleen of an infected donor hamster and used to infect primary peritoneal mouse macrophages. (Kaiser, M., Maes, L., Tadoori, L. P., Spangenberg, T., Ioset, J.-R. J. Biomol. Screen. 2015 20(5), 634-35.) To determine in vitro antileishmanial activity, 3×10^4 macrophages were seeded in each well of a 96-well plate. Culture medium was RPMI-1640 supplemented with L-glutamine (20 mM), 16.5 mM sodium hydrogen carbonate, and 10% fetal calf serum (FCS). After 2 d of outgrowth, 5×10^5 amastigotes/well were added and incubated for 2 h at 37° C. Prediluted samples to be tested were subsequently added, and the plates were further incubated for 5 d at 37° C. and 5% CO2. Total parasite burdens in the well were microscopically assessed after Giemsa staining and expressed as a percentage of the total burden in the blank controls without compound. In treated wells with high amastigote burdens, an overall estimate of the total burden per well was made without discrimination between the number of infected macrophages and the number of amastigotes per infected cell. In treated wells with low burdens, exact counting was performed. The 50% inhibitory concentrations (IC50s) were then generated for each dose response test using GraphPad Prism (GraphPad Software Inc., San Diego, Calif.) using the nonlinear regression (sigmoidal dose-response/variable slope) equation.

[5] = system: bloodstream forms of T. b. rhodesiense STIB 900; experiment: T. brucei rhodesiense STIB 900 growth inhibition assay; settings: Trypanosoma brucei, 72 h
Text: Example 110. T. brucei rhodesiense STIB 900 Growth Inhibition Assay
The parasite strain used in this assay was isolated in 1982 from a human patient in Tanzania and after several mouse passages cloned and adapted to axenic culture conditions, ((a) Baltz, T., D. Baltz, C. Giroud, and J. Crockett. EMBO Journal, 1985, 4:1273-1277. (b) Thuita, J. K., S. M. Karanja, T. Wenzler, R. E. Mdachi, J. M. Ngotho, J. M. Kagira, R. Tidwell, and R. Brun. Acta Tropica 2008, 108:6-10.) Minimum Essential Medium (50 μl) supplemented with 25 mM HEPES, 1 g/l additional glucose, 1% MEM non-essential amino acids (100×), 0.2 mM 2-mercaptoethanol, 1 mM Na-pyruvate and 15% heat inactivated horse serum was added to each well of a 96-well microtiter plate. Serial drug dilutions of seven 3-fold dilution steps covering a range from 90 to 0.123 μg/ml were prepared. Then 10^4 bloodstream forms of T. b. rhodesiense STIB 900 in 50 μl was added to each well and the plate incubated at 37° C. under a 5% CO2 atmosphere for 72 h. 10 μl Alamar Blue (resazurin, 12.5 mg in 100 ml double-distilled water) was then added to each well and incubation continued for a further 2-4 h, (Raz, B., M. Iten, Y. Grether-Buhler, R. Kaminsky, and R. Brun. Acta Trap 1997, 68:139-47.) Then the plates were read with a Spectramax Gemini XS microplate fluorometer (Molecular Devices Cooperation, Sunnyvale, Calif., USA) using an excitation wave length of 536 nm and an emission wave length of 588 nm. Data were analyzed using the microplate reader software Softmax Pro (Molecular Devices Cooperation, Sunnyvale, Calif., USA).

[6] = amastigotes in primary peritoneal mouse macrophages, 5 d, Giemsa staining, read-out: Inhibition of Organism Growth in Leishmania infantum MHOM/MA/BE/67, 5 d
[7] = bloodstream forms, Alamar Blue, protocol of Example 110, read-out: IC50: I Org. Growth T. brucei rhodesiense STIB 900, 3 d

| SMILES | IC50 [2] [nM] | IC50 [4, 6] [µM] | IC50 [5, 7] [µM] | other results |
| --- | --- | --- | --- | --- |
| Cc1c(C(=O)Nc2ccc3c(c2)B(O)OC3C)nnn1-c1ccccc1 (centres unmarked) [Example 1, N-(1-hydroxy-1,3-dihydrobenzo[c][1,2]oxaborol-6-yl)-5-methyl-1-phenyl-1H-Example 11,2,3-triazole-4-carboxamide] | < 600 | – | – | IC50 [1]: ≤ 1000 nM |
| Cc1c(C(=O)Nc2ccc3c(c2)B(O)OC3)nnn1C1CCC1 [Example 42, 1-cyclobutyl-N-(1-hydroxy-1,3-dihydrobenzo[c][1,2]oxaborol-6-yl)-5-methyl-1H-1,2,3-triazole-4-carboxamide] | 600 to 1000 | – | – | IC50 [1]: 1100 to 9900 nM |
| CC(C)c1c(C(=O)Nc2ccc3c(c2)B(O)OC3)nnn1-c1ccccn1 [Example 51, N-(1-hydroxy-1,3-dihydrobenzo[c][1,2]oxaborol-6-yl)-5-isopropyl-1-(pyridin-2-yl)-1H-1,2,3-triazole-4-carboxamide] | 600 to 1000 | – | – | IC50 [3]: 100 to 300 nM |
| COCCc1c(C(=O)Nc2ccc3c(c2)B(O)OC3)nnn1-c1ccccn1 [Example 52, N-(1-hydroxy-1,3-dihydrobenzo[c][1,2]oxaborol-6-yl)-5-(2-methoxyethyl)-1-(pyridin-2-yl)-1H-1,2,3-triazole-4-carboxamide] | 1100 to 10000 | – | – | IC50 [3]: 100 to 300 nM |
| Cn1c(C(=O)Nc2ccc3c(c2)B(O)OC3)nnc1-c1ccccn1 [Example 73, N-(1-hydroxy-1,3-dihydrobenzo[c][1,2]oxaborol-6-yl)-4-methyl-5-(pyridine-2-yl)-4H-1,2,4-triazole-3-carboxamide] | – | 3 to 19.9 | 0.1 to 0.3 | – |
| Cc1cccc(-c2nc(C(=O)Nc3ccc4c(c3)B(O)OC4)nn2C)n1 [Example 74, N-(1-hydroxy-1,3-dihydrobenzo[c][1,2]oxaborol-6-yl)-1-methyl-5-(6-methylpyridin-2-yl)-1H-1,2,4-triazole-3-carboxamide] | – | < 3 | 0.1 to 0.3 | – |
| COc1cccc(-c2nc(C(=O)Nc3ccc4c(c3)B(O)OC4)nn2C)n1 [Example 75, N-(1-hydroxy-1,3-dihydrobenzo[c][1,2]oxaborol-6-yl)-5-(6-methoxypyridin-2-yl)-1-methyl-1H-1,2,4-triazole-3-carboxamide] | – | < 3 | < 0.1 | inhibition at 1 µM ([3]; read-out: inhibition of T. congolense IL-3000 growth at a concentration of 1.0 μM (classes D, E)): > 75% |
| Cn1nc(C(=O)Nc2ccc3c(c2)B(O)OC3)nc1-c1cccnc1 [Example 78a, N-(1-hydroxy-1,3-dihydrobenzo[c][1,2]oxaborol-6-yl)-1-methyl-5-(pyridin-3-yl)-1H-1,2,4-triazole-3-carboxamide] | – | – | – | IC50 ([4]; read-out: Inhibition of Organism Growth in Leishmania infantum MHOM/MA/BE/67, 5 d [uM]): 3 to 19.9 µM; IC50 ([5]; read-out: IC50: I Org. Growth T. brucei rhodesiense STIB 900, 3 d [uM]): 0.31 to 10 µM |
